Data on 2 compounds can be found in US7632928B2, “Method and antibodies for detecting nitrofuran” (Charm Sciences, Inc, priority 2004, dated 2009).

The subject of data set [1] is antibody raised against FZDM-Glut-Thyroglobulin immunogen. Nature of the data set: AOZ ELISA competitive binding assay. Conditions: positive controls at input levels 0.1 to 10 ppb; PEB vs PBS buffer; plate coated with N-linked FZDM-BSA. From the text: An AOZ ELISA competitive binding assay is shown below, where the N-linked direct conjugate of FZDM-BSA is used as a binding partner conjugate coated on the ELISA plate, and the N-linked direct conjugate of FZDM-alpha-amylase is used as the positive control of protein-bound FZDM in comparison with the FZDM positive control. The antibody used in the assay was raised against the prior art FZDM-Glut-Thyroglobulin immunogen. Assays were run in two different buffers comparing PEB (Protein Elution Buffer) vs. PBS (Phosphate buffer saline).

Structures are written as SMILES.

The compound `N#CC=CC(=O)/C=N/N1CC(=O)NC1=O` [compound 1, 5-(2,4-Dioxoimidazolidin-1-ylimino)-4-oxo-pent-2-enenitrile] gave a melting point of 171 to 173 °C.

For `N#CC=CC(=O)/C=N/N1CCOC1=O` [compound 3, 5-(2-oxo-oxazolidin-3-ylimino)-4-oxo-pent-2-enenitrile], the “dose-responses (% inhibition)” value in data set [1] is on record as “varying dose-responses”.
